# Results taken from ChEMBL document CHEMBL1201862, “PubChem BioAssay data set” (2004).
#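 48-hour exposure; five concentrations; linearly interpolated endpoints. GI50 = concentration required for 50% inhibition of growth.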 Active and inactive are the calls of the source. Rule as the data show it: active = GI50 up to about 1.1 µM and inactive = higher.
# Key:
# Assay in all cases: DTP human tumour cell line panel, 48 h
# SR = test system: SR
# SF-268 = test system: SF-268
# UACC-257 = test system: UACC-257
# ACHN = test system: ACHN
# A498 = test system: A498
# MOLT-4 = test system: MOLT-4
# SF-539 = test system: SF-539
# Malme-3M = test system: Malme-3M
# NCI-H522 = test system: NCI-H522
# EKVX = test system: EKVX
# SK-OV-3 = test system: SK-OV-3
# UACC-62 = test system: UACC-62
# PC-3 = test system: PC-3
# SF-295 = test system: SF-295
# MDA-N = test system: MDA-N
# MDA-MB-231 = test system: MDA-MB-231
# SK-MEL-28 = test system: SK-MEL-28
# MDA-MB-435 = test system: MDA-MB-435
# DU-145 = test system: DU-145
# HCT-15 = test system: HCT-15
Compound,GI50 (SR),GI50 (SF-268),GI50 (UACC-257),GI50 (ACHN),GI50 (A498),GI50 (MOLT-4),GI50 (SF-539),GI50 (Malme-3M),GI50 (NCI-H522),GI50 (EKVX),GI50 (SK-OV-3),GI50 (UACC-62),GI50 (PC-3),GI50 (SF-295),GI50 (MDA-N),GI50 (MDA-MB-231),GI50 (SK-MEL-28),GI50 (MDA-MB-435),GI50 (DU-145),GI50 (HCT-15) [µM]
OCCOCCO[P+]1(OCCOCCO)n2c3ccc2C(c2ccccc2)=C2C=CC(=N2)C(c2ccccc2)=c2ccc(n21)=C(c1ccccc1)C1=NC(=C3c2ccccc2)C=C1,1 µM (active),0.0618 µM (active),0.0268 µM (active),0.35 µM (active),8.57 µM (inactive),0.0267 µM (active),0.188 µM (active),0.119 µM (active),0.186 µM (active),0.32 µM (active),0.0859 µM (active),0.0618 µM (active),0.107 µM (active),0.281 µM (active),0.0314 µM (active),0.0736 µM (active),0.0631 µM (active),0.0316 µM (active),0.112 µM (active),1.51
O=C(O)CSc1ccccc1C(=O)O,> 100 µM (inactive),> 100 µM (inactive),15 µM (inactive),> 100 µM (inactive),> 100 µM (inactive),> 100 µM (inactive),> 100 µM (inactive),> 100 µM (inactive),> 100 µM (inactive),> 100 µM (inactive),> 100 µM (inactive),> 100 µM (inactive),> 100 µM (inactive),> 100 µM (inactive),> 100 µM (inactive),> 100 µM (inactive),> 100 µM (inactive),> 100 µM (inactive),> 100 µM (inactive),> 100
CC1=C2c3ccccc3N(S(=O)(=O)c3ccccc3)[C@H]2[C@H](C(=O)N2C3CC4CC[C@@]3(CS2(=O)=O)C4(C)C)CC1 (stereo not given in full),12.5 µM (inactive),17.9 µM (inactive),33.7 µM (inactive),34.3 µM (inactive),87.9 µM (inactive),6.38 µM (inactive),0.415 µM (active),28.9 µM (inactive),10.8 µM (inactive),56.6 µM (inactive),22.1 µM (inactive),9.55 µM (inactive),8.67 µM (inactive),1.71 µM (inactive),> 10 µM (inactive),> 100 µM (inactive),> 100 µM (inactive),56.5 µM (inactive),> 100 µM (inactive),5.36
CC(=O)N1CCOC12N=NC(C)(C)O2 (stereo not given),> 100 µM (inactive),> 100 µM (inactive),> 100 µM (inactive),> 100 µM (inactive),> 100 µM (inactive),> 100 µM (inactive),> 100 µM (inactive),> 100 µM (inactive),> 100 µM (inactive),> 100 µM (inactive),> 100 µM (inactive),> 100 µM (inactive),> 100 µM (inactive),> 100 µM (inactive),> 100 µM (inactive),> 100 µM (inactive),> 100 µM (inactive),> 100 µM (inactive),> 100 µM (inactive),> 100
CC1(C)OCC(C2OC(OC(=O)c3ccc(C(F)(F)F)cc3)C3OC(C)(C)OC23)O1 (stereo not given),23.4 µM (inactive),45.4 µM (inactive),> 77.4 µM (inactive),> 77.4 µM (inactive),> 77.4 µM (inactive),38 µM (inactive),> 77.4 µM (inactive),> 77.4 µM (inactive),> 77.4 µM (inactive),> 77.4 µM (inactive),> 77.4 µM (inactive),> 77.4 µM (inactive),> 77.4 µM (inactive),> 77.4 µM (inactive),> 77.4 µM (inactive),63 µM (inactive),> 77.4 µM (inactive),> 77.4 µM (inactive),> 77.4 µM (inactive),> 77.4
NCC(=O)Nc1ccc(Cl)cc1C(=O)c1ccc[nH]1,8.99 µM (inactive),49 µM (inactive),> 100 µM (inactive),> 74 µM (inactive),> 63.1 µM (inactive),35.8 µM (inactive),> 32.8 µM (inactive),> 56.4 µM (inactive),11.5 µM (inactive),> 100 µM (inactive),> 100 µM (inactive),> 68.5 µM (inactive),25.9 µM (inactive),> 100 µM (inactive),23.4 µM (inactive),> 51.1 µM (inactive),> 93.5 µM (inactive),45.2 µM (inactive),> 100 µM (inactive),38.5
O=C(CNc1ccc(Cl)cc1)Nn1c(-c2ccccc2)nc2ccccc2c1=O,3.28 µM (inactive),4.62 µM (inactive),12.8 µM (inactive),8.89 µM (inactive),14.9 µM (inactive),2.49 µM (inactive),4.37 µM (inactive),6.55 µM (inactive),2.99 µM (inactive),18.1 µM (inactive),10.1 µM (inactive),3.89 µM (inactive),12.6 µM (inactive),15.1 µM (inactive),7.38 µM (inactive),4.79 µM (inactive),6.64 µM (inactive),8.17 µM (inactive),15.1 µM (inactive),6.7
NC(=O)c1nnn(Cc2cc(Cl)c(C(=O)c3ccc(Cl)cc3)c(Cl)c2)c1N [CARBOXYAMIDOTRIAZOLE],6.75 µM (inactive),13 µM (inactive),7.98 µM (inactive),9.46 µM (inactive),13.7 µM (inactive),25.9 µM (inactive),29.2 µM (inactive),27.5 µM (inactive),19 µM (inactive),16.8 µM (inactive),> 38.5 µM (inactive),12.9 µM (inactive),19.5 µM (inactive),9.77 µM (inactive),10.7 µM (inactive),> 36.2 µM (inactive),27.9 µM (inactive),11 µM (inactive),19.2 µM (inactive),12.7
Cc1sc2[nH]c(=O)oc(=O)c2c1C,37.8 µM (inactive),53.8 µM (inactive),> 100 µM (inactive),97.7 µM (inactive),> 100 µM (inactive),48.5 µM (inactive),58.3 µM (inactive),> 72.1 µM (inactive),26 µM (inactive),> 100 µM (inactive),> 100 µM (inactive),52.1 µM (inactive),> 100 µM (inactive),> 77.8 µM (inactive),58.2 µM (inactive),> 70.8 µM (inactive),> 71.8 µM (inactive),39.9 µM (inactive),> 100 µM (inactive),> 89.9
O=C(Oc1ccccc1)c1cc2cc(CCl)ccc2oc1=O,28.1 µM (inactive),23.2 µM (inactive),11.6 µM (inactive),8.99 µM (inactive),19.1 µM (inactive),18.8 µM (inactive),30.6 µM (inactive),1.74 µM (inactive),6.17 µM (inactive),17.6 µM (inactive),28.6 µM (inactive),13.4 µM (inactive),14.2 µM (inactive),32.6 µM (inactive),19.9 µM (inactive),32.1 µM (inactive),13.3 µM (inactive),19.4 µM (inactive),27.7 µM (inactive),31.5
